# Test results reported in ChEMBL document CHEMBL6153144, “Conformational Role of Methyl in the Potency of Cyclohexane-Substituted Squaramide CCR6 Antagonists” (J Med Chem, 2025).
# pIC50: −log10 of the molar value.
# How the values were obtained:
# [1] = Metabolic stability in human hepatocytes assessed as apparent intrinsic clearance measured per molar; format: ADME, cell-based, Hepatocyte
# [2] = Lipophilicity, logD of compound by shake flask method; format: physicochemical; conditions: octanol/water
# [3] = target: Voltage-gated inwardly rectifying potassium channel KCNH2 (Homo sapiens, UniProt Q12809); assay: Inhibition of hERG; format: toxicity
# CYP (isoform not stated) = CYP (isoform not stated) (Homo sapiens, UniProt P04798+P05177+P05181+P08684+P10632+P10635+P11509+P11712+P13584+P20813+P20815+P20853+P24462+P24903+P33260+P33261+P51589+P78329+P98187+Q02928+Q08477+Q16678+Q16696+Q5TCH4+Q6VVX0+Q7Z449+Q8TAV3+Q96SQ9+Q9HB55); assay: Inhibition of CYP (unknown origin) at 3 uM relative to control; format: ADME, protein assay
# Chain of Voltage-gated inwardly rectifying potassium channel KCNH2 (Q12809 whole entry, canonical isoform): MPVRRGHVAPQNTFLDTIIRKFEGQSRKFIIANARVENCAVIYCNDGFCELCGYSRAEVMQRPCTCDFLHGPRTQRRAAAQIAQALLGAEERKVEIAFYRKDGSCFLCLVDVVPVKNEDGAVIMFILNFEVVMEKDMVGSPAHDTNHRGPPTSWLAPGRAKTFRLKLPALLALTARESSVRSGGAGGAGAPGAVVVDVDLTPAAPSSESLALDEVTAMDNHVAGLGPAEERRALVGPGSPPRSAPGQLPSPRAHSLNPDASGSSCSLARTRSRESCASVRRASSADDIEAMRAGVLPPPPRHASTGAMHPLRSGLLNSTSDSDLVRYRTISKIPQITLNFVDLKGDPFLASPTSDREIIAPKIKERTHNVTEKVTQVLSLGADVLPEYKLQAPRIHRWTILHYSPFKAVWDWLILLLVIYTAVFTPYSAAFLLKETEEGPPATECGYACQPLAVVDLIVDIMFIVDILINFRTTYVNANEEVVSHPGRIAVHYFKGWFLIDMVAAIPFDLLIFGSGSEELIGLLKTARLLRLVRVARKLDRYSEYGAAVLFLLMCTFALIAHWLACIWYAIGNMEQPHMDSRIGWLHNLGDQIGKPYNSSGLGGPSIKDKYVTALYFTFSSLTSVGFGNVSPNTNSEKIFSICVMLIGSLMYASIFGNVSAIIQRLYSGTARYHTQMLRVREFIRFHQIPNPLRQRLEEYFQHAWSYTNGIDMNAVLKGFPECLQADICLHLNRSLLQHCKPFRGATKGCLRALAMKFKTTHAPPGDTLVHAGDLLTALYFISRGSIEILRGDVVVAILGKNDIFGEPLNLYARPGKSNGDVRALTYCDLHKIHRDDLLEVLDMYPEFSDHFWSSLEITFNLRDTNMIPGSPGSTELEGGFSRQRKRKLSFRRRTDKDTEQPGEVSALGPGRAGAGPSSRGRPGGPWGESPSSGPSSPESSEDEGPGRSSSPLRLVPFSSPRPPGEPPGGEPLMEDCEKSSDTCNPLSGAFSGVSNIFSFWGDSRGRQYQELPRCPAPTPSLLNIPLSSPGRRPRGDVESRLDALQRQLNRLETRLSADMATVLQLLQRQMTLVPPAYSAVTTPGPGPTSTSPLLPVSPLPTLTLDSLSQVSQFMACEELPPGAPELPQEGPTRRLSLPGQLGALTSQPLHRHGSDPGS
SMILES,CL(app) [1] [µL/min],other results
C[C@H]1CCCC[C@@]1(C)Nc1c(Nc2ccnc(C(=O)N(C)C)c2O)c(=O)c1=O,8.3,
C[C@H]1CCCC[C@H]1Nc1c(Nc2ccnc(C(=O)N(C)C)c2O)c(=O)c1=O,6.8,
CN(C)C(=O)c1nccc(Nc2c(NC3CCCCC3)c(=O)c2=O)c1O,,logD [2]: 0.86
C[C@@H]1CCCC[C@@H]1Nc1c(Nc2ccnc(C(=O)N(C)C)c2O)c(=O)c1=O,4.7,
C[C@@H]1CCCC[C@]1(C)Nc1c(Nc2ccnc(C(=O)N(C)C)c2O)c(=O)c1=O,9.9,
C[C@@H]1CCC[C@H](C)[C@@H]1Nc1c(Nc2ccnc(C(=O)N(C)C)c2O)c(=O)c1=O,6.9,
C[C@H]1OCCC[C@@]1(C)Nc1c(Nc2ccnc(C(=O)N(C)C)c2O)c(=O)c1=O,3.4,
C[C@@H]1OCCC[C@]1(C)Nc1c(Nc2ccnc(C(=O)N(C)C)c2O)c(=O)c1=O,2.9,pIC50 [3]: < 4.00; inhibition at 3 µM (CYP (isoform not stated)): < 5%
